Laboratory results: the NIST ThermoML archive (doi:10.1021/je400250u)

Experiments:
[1] = refractive index (Na D-line) (dimensionless); xn = mol fraction of the nth substance listed; conditions: 100 kPa, Liquid, Standard Abbe refractometry
[2] = xn = mol fraction of the nth substance listed; conditions: 100 kPa, Liquid; for viscosity: Capillary tube (Ostwald / Ubbelohde) method; for mass density: Vibrating tube method

C1CC[C@H]2CCCC[C@H]2C1 [cis-decahydronaphthalene] + CCCCCCCCC
Conditions | mass density, [2] [kg/m3] | refractive index, [1] | viscosity, [2] [mPa·s]
293.15 K, x1 = 0.1031 | 734.59 | – | 0.788
293.15 K, x1 = 0.2033 | 751.1 | – | 0.899
293.15 K, x1 = 0.2973 | 766.96 | – | 1.02
293.15 K, x1 = 0.3997 | 784.54 | – | 1.139
293.15 K, x1 = 0.4978 | 801.87 | – | 1.268
293.15 K, x1 = 0.6044 | 821.02 | – | 1.507
293.15 K, x1 = 0.6961 | 837.96 | – | 1.769
293.15 K, x1 = 0.8014 | 857.86 | – | 2.111
293.15 K, x1 = 0.8976 | 876.48 | – | 2.526
293.15 K, x1 = 1 | 896.85 | – | 3.355
298.15 K, x1 = 0.1031 | 730.75 | 1.4095 | 0.737
298.15 K, x1 = 0.2033 | 747.26 | 1.4168 | 0.826
298.15 K, x1 = 0.2973 | 763.14 | 1.4232 | 0.956
298.15 K, x1 = 0.3997 | 780.74 | 1.4311 | 1.064
298.15 K, x1 = 0.4978 | 798.1 | 1.438 | 1.171
298.15 K, x1 = 0.6044 | 817.23 | 1.4459 | 1.385
298.15 K, x1 = 0.6961 | 834.18 | 1.4533 | 1.624
298.15 K, x1 = 0.8014 | 854.08 | 1.4613 | 1.919
298.15 K, x1 = 0.8976 | 872.72 | 1.4688 | 2.288
298.15 K, x1 = 1 | 893.06 | 1.4776 | 3.011
303.15 K, x1 = 0.1031 | 726.86 | – | 0.695
303.15 K, x1 = 0.2033 | 743.4 | – | 0.786
303.15 K, x1 = 0.2973 | 759.3 | – | 0.883
303.15 K, x1 = 0.3997 | 776.91 | – | 0.986
303.15 K, x1 = 0.4978 | 794.29 | – | 1.086
303.15 K, x1 = 0.6044 | 813.43 | – | 1.276
303.15 K, x1 = 0.6961 | 830.38 | – | 1.49
303.15 K, x1 = 0.8014 | 850.29 | – | 1.748
303.15 K, x1 = 0.8976 | 868.92 | – | 2.081
303.15 K, x1 = 1 | 889.26 | – | 2.718
308.15 K, x1 = 0.1031 | 722.96 | 1.4047 | 0.655
308.15 K, x1 = 0.2033 | 739.52 | 1.4121 | 0.739
308.15 K, x1 = 0.2973 | 755.44 | 1.4189 | 0.826
308.15 K, x1 = 0.3997 | 773.07 | 1.4269 | 0.917
308.15 K, x1 = 0.4978 | 790.46 | 1.4336 | 1.01
308.15 K, x1 = 0.6044 | 809.61 | 1.4425 | 1.182
308.15 K, x1 = 0.6961 | 826.58 | 1.4492 | 1.372
308.15 K, x1 = 0.8014 | 846.49 | 1.4572 | 1.606
308.15 K, x1 = 0.8976 | 865.13 | 1.4654 | 1.891
308.15 K, x1 = 1 | 885.46 | 1.4736 | 2.47
313.15 K, x1 = 0.1031 | 719.05 | – | 0.617
313.15 K, x1 = 0.2033 | 735.63 | – | 0.698
313.15 K, x1 = 0.2973 | 751.56 | – | 0.77
313.15 K, x1 = 0.3997 | 769.21 | – | 0.852
313.15 K, x1 = 0.4978 | 786.62 | – | 0.943
313.15 K, x1 = 0.6044 | 805.79 | – | 1.099
313.15 K, x1 = 0.6961 | 822.76 | – | 1.26
313.15 K, x1 = 0.8014 | 842.68 | – | 1.476
313.15 K, x1 = 0.8976 | 861.33 | – | 1.732
313.15 K, x1 = 1 | 881.65 | – | 2.252
318.15 K, x1 = 0.1031 | 715.12 | 1.4002 | 0.588
318.15 K, x1 = 0.2033 | 731.73 | 1.4077 | 0.662
318.15 K, x1 = 0.2973 | 747.68 | 1.4145 | 0.728
318.15 K, x1 = 0.3997 | 765.35 | 1.4223 | 0.802
318.15 K, x1 = 0.4978 | 782.77 | 1.4294 | 0.89
318.15 K, x1 = 0.6044 | 801.95 | 1.4379 | 1.033
318.15 K, x1 = 0.6961 | 818.94 | 1.4452 | 1.174
318.15 K, x1 = 0.8014 | 838.88 | 1.4533 | 1.374
318.15 K, x1 = 0.8976 | 857.52 | 1.4616 | 1.604
318.15 K, x1 = 1 | 877.85 | 1.4696 | 2.079
323.15 K, x1 = 0.1031 | 711.17 | – | 0.559
323.15 K, x1 = 0.2033 | 727.8 | – | 0.626
323.15 K, x1 = 0.2973 | 743.78 | – | 0.681
323.15 K, x1 = 0.3997 | 761.47 | – | 0.753
323.15 K, x1 = 0.4978 | 778.9 | – | 0.835
323.15 K, x1 = 0.6044 | 798.11 | – | 0.965
323.15 K, x1 = 0.6961 | 815.11 | – | 1.094
323.15 K, x1 = 0.8014 | 835.06 | – | 1.262
323.15 K, x1 = 0.8976 | 853.71 | – | 1.477
323.15 K, x1 = 1 | 874.05 | – | 1.912
